The values below come from patent US20260049079A1, “CHIRAL SYNTHESIS OF FUSED BICYCLIC RAF INHIBITORS” (Jazz Pharmaceuticals Ireland Limited, priority 2020, published 2026).

Structures are written as SMILES. Where two headings read alike, the source gives them in different places.

One data set relates to WiDr cells. Nature of the data set: WiDr CellTiter-Glo 3D Cell Proliferation Assay. Type of data set: cell-based. Particulars: Homo sapiens, WiDr spheroids, read-out: 3D WiDr pGI50 (converted).
Data set [1] deals with constitutive ERK phosphorylation in WiDr cells (BRAF V600E). Nature of the data set: WiDr AlphaLISA SureFire pERK1/2 Cellular Assay. Type of data set: cell-based. Particulars: Homo sapiens. The procedure:
[Worded in the source for another cell line; used here, by the source, with some conditions changed.] (§1) The human HCT-116 colorectal carcinoma cell line (ATCC CCL-247) endogenously expresses the KRAS^G13D mutation, which leads to constitutive activation of the MAP kinase pathway and phosphorylation of ERK. […] Assay read outs took place 2 or 24 hours after dosing with compounds. On the first day, HCT-116 cells were harvested, resuspended in growth medium (McCoys5A with Glutamax (Life Technologies 36600021) and 10% heat-inactivated fetal bovine serum (Sigma F9665)), and counted. Cells were plated in 100 μl per well in each well of a 96-well culture dish (Sigma CLS3598) to a final density of 30,000 (2 hr read) or 15,000 (24 hr read) cells per well and incubated over night at 37° C. and 5% CO2. On day 2, the growth medium was exchanged for dosing medium (McCoys5A with Glutamax (Life Technologies 36600021) and 1% heat-inactivated fetal bovine serum (Sigma F9665)) and the cells were dosed with compounds to produce a 10-point dose response, where the top concentration was 1 μM and subsequent concentrations were at ⅓ log dilution intervals. A matched DMSO control was included. The cells were subsequently incubated for either 2 or 24 hours at 37° C. and 5% CO2. After incubation, media was removed and the cells were incubated with lysis buffer containing phosphatase inhibitors for 15 minutes at room temperature. Cell lysates were transferred to a ½ area 96 well white Optiplate™ (Perkin Elmer 6005569) and incubated with anti-mouse IgG acceptor beads, a biotinylated anti-ERK1/2 rabbit antibody recognizing both phosphorylated and non-phosphorylated ERK1/2, a mouse antibody targeted to the Thr202/Tyr204 epitope and recognizing phosphorylated ERK proteins only, and streptavidin-coated donor beads. The biotinylated antibody binds to the streptavidin-coated donor beads and the phopsho-ERK1/2 antibody binds to the acceptor beads. Plates were read on an EnVision reader (Perkin Elmer) and excitation of the beads at 680 nm with a laser induced the release of singlet oxygen molecules from the donor beads that trigger energy transfer to the acceptor beads in close proximity, producing a signal that can be measured at […]. Both antibodies bound to phosphorylated ERK proteins, bringing the donor and acceptor beads into close proximity. All data were analyzed using the Dotmatics or GraphPad Prism software packages. Inhibition of ERK phosphorylation was assessed by determination of the absolute IC50 value, which is defined as the concentration of compound required to decrease the level of phosphorylated ERK proteins by 50% when compared to DMSO control.
WiDr AlphaLISA SureFire pERK1/2 Cellular Assay […]

Data set [2] deals with constitutive ERK phosphorylation in HCT-116 cells (KRAS G13D). Nature of the data set: HCT-116 AlphaLISA SureFire pERK1/2 Cellular Assay. Type of data set: cell-based. Particulars: Homo sapiens. On the procedure:
HCT-116 AlphaLISA SureFire pERK1/2 Cellular Assay
as §1

A short description of data set [3]: Plasma Protein Binding Assay (hPPB). Type of data set: in vitro ADME. The note with it: human plasma, equilibrium dialysis, 5 μM, 4 hours, 37° C. The procedure: (§2) Plasma Protein Binding Assay
(§3) The plasma protein binding was determined by the equilibrium dialysis method. A known concentration of compound (5 μM) in previously frozen human or mouse plasma (Sera Labs) was dialysed against phosphate buffer using a RED device (Life Technologies) for 4 hours at 37° C. The concentration of compound in the protein containing (PC) and protein free (PF) sides of the dialysis membrane were determined by LC-MS/MS and the % free compound was determined by equation 4. Data analysis was performed using Excel (Microsoft, USA).
(§4) hPPB (human plasma protein binding) and mPPB (mouse plasma protein binding) results are described in Table 34D.

A short description of data set [4]: Hepatocyte Stability Assay (HLH). The note with it: human hepatocytes, 0.5×10^6 cells/mL, 1 μM compound, 37° C. The data set is classed as in vitro ADME. On the procedure: Hepatocyte Stability Assay
Hepatocyte stability studies were performed manually using the substrate depletion approach. Compounds were incubated at 37° C. with cryo-preserved mouse (Bioreclamation) or human (Corning) hepatocytes at a cell density of 0.5×10^6 cells/mL and a final compound concentration of 1 μM. Sampling was performed at defined timepoints and the reaction was terminated by adding to ice-cold organic solvent. Compound concentrations were determined by LC-MS/MS analysis. The natural log of the percentage of compound remaining was plotted against each time point and the slope determined. The half-life (t1/2) and CLint were calculated using Equations 1 and 3, respectively. Data analysis was performed using Excel (Microsoft, USA).
HLH (human liver hepatocytes) and MLH (mouse liver heptaocytes) stability assay results are described in Table 34C.

The next data set has as its system HCT-116 cells. The data set can be described thus: HCT-116 CellTiter-Glo 3D Cell Proliferation Assay. The data set is classed as cell-based. Particulars: Homo sapiens, HCT116 spheroids, read-out: 3D HCT116 pGI50 (converted).
A short description of data set [5]: Microsomal Stability Assay (HLM). Type of data set: in vitro ADME. The note with it: human liver microsomes, 0.5 mg/mL protein, 1 μM compound, 37° C. On the procedure:
Microsomal Stability Assay
The stability studies were performed manually using the substrate depletion approach. Test compounds were incubated at 37° C. with cryo-preserved mouse or human liver microsomes (Corning) at a protein concentration of 0.5 mg·mL^−1 and a final substrate concentration of 1 μM. Aliquots were removed from the incubation at defined timepoints and the reaction was terminated by adding to ice-cold organic solvent. Compound concentrations were determined by LC-MS/MS analysis. The natural log of the percentage of compound remaining was plotted against each time point and the slope determined. The half-life (t1/2) and CLint were calculated using Equations 1 and 2, respectively. Data analysis was performed using Excel (Microsoft, USA).
HLM (human liver microsomes) and MLM (mouse liver microsomes) stability assay results are described in Table 34C.

Data set [6] in a line: Plasma Protein Binding Assay (mPPB). Particulars: mouse plasma, equilibrium dialysis, 5 μM, 4 hours, 37° C. Type of data set: in vitro ADME. On the procedure:
as §2, §3, §4

Setting [7] is: WiDr, 2 h, read-out: PERK WiDr (2 hr) Abs plC50.
Setting [8] is: HCT-116, 2 h, read-out: PERK HCT116 (2 hr) Abs plC50.
Where [9] appears, read: HCT-116, 24 h, read-out: pERK HCT116 (24 hr) Abs plC50.

With `O=C1CCc2c(Oc3ccc4c(c3)C[C@H](c3nc(-c5ccc(F)cc5)c[nH]3)CO4)ccnc2N1` (single isomer, unassigned) [Compound A-2], the results for the GI50 in the data set on WiDr cells and in the data set with HCT-116 cells were 0.537 µM and 0.263 µM, respectively. In addition, the IC50 in data set [1] (setting [7]) was 0.162 µM; in data set [2] (setting [8]) it was 0.0692 µM; in data set [2] (setting [9]), 0.115 µM. Moreover, the “hPPB (% free)” value in data set [3] is 0.7 % free. The compound further had a hepatocyte CLint at 1 µM in data set [4] of 11.4 µL/min/1e6 cells. In addition, the microsomal CLint at 1 µM in data set [5] is 11.8 µL/min/mg. Further, the “mPPB (% free)” value in data set [6] was 0.9 % free.
For `O=C1CCc2c(Oc3ccc4c(c3)CC(c3nc(-c5cccs5)c[nH]3)CO4)ccnc2N1` (racemic) [B-rac], the IC50 in data set [1] (WiDr cells, 2 hr, absolute pIC50, read-out: PERK WiDr (2 hr) Abs plC50 (converted)) is 0.0447 µM; in data set [2] (HCT-116, HCT116 cells, 2 hr, absolute pIC50, read-out: PERK HCT116 (2 hr) Abs plC50 (converted)), 0.0191 µM; in data set [2] (HCT-116, HCT116 cells, 24 hr, absolute pIC50, read-out: pERK HCT116 (24 hr) Abs plC50 (converted)), 0.024 µM. In data set [3], the “hPPB (% free)” value is listed as 0.7 % free. In data set [4], this compound gave a hepatocyte CLint at 1 µM of 11.5 µL/min/1e6 cells. The microsomal CLint at 1 µM in data set [5] turned out to be 60.1 µL/min/mg. Also, the “mPPB (% free)” value in data set [6] is listed as 0.7 % free.
`O=C1CCc2c(Oc3ccc4c(c3)CC(c3ncc(-c5ccc(F)cc5)[nH]3)CO4)ccnc2N1` (racemic) [A-rac]: the IC50 is 0.0562 µM in data set [1] (setting [7]), 0.0741 µM in data set [2] (setting [8]) and 0.0871 µM in data set [2] (setting [9]). The “hPPB (% free)” value in data set [3] is 0.5 % free. The compound also came in with a hepatocyte CLint at 1 µM in data set [4] of 4.6 µL/min/1e6 cells. For the same compound, the microsomal CLint at 1 µM in data set [5] was determined as 26.9 µL/min/mg. The “mPPB (% free)” value in data set [6] is 1.8 % free.
On to `O=C1CCc2c(Oc3ccc4c(c3)C[C@@H](c3nc(-c5ccc(F)cc5)c[nH]3)CO4)ccnc2N1` (single isomer, unassigned) [Compound A-1], for which the GI50 with WiDr cells is 0.0525 µM; with HCT-116 cells, 0.0407 µM. For the same compound, the IC50 in data set [1] (setting [7]) is 0.0457 µM; in data set [2] (setting [8]), 0.049 µM; in data set [2] (setting [9]) it was 0.0955 µM. The “hPPB (% free)” value in data set [3] turned out to be 0.5 % free. In data set [4], the hepatocyte CLint at 1 µM turned out to be 26.8 µL/min/1e6 cells. In addition, the microsomal CLint at 1 µM in data set [5] is 21.7 µL/min/mg. Also, the “mPPB (% free)” value in data set [6] was determined as 0.8 % free.
